Counter-ions that a name gives are not always drawn. Like-named read-outs stand apart in the source and are kept apart here.
How the values were obtained:
[1] = tested on: Aspergillus niger (CMCC 98003); assay: Minimum inhibitory concentration (MIC) assay, Example 33; assay type: cell-based; settings: for MIC: Aspergillus niger; for MIC Aspergillus niger: n = 2
Outline: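 Broth microdilution MIC per CLSI guidelines in RPMI 1640 with serial 2-fold compound dilutions. Spore suspension from sporulating colonies adjusted to OD530 0.09-0.13, diluted 1:50 as 2× inoculum and added 1:2 to drug wells; plates incubated at 35 °C and MIC read per CLSI.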

[2] = Solubility (Sol., Table 1); assay type: physicochemical
[3] = tested on: Escherichia coli (ATCC 25922); assay: Minimum inhibitory concentration (MIC) assay, Example 33; assay type: cell-based; settings: Escherichia coli
Outline: (§1)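 Colonies re-streaked twice on agar (20 to 24 hrs, 35±2° C) supplied inoculum adjusted to 0.5 McFarland, diluted 1:100 into medium, then added 1:2 to CAMHB wells holding 2-fold compound dilutions. After incubation at 35° C, MIC was recorded per CLSI.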

[4] = tested on: Pseudomonas aeruginosa (ATCC 27853); assay: as above; assay type: cell-based; settings: Pseudomonas aeruginosa
Outline: as §1

[5] = tested on: Staphulococcus aureus (ATCC 29213); assay: as above; assay type: cell-based, Staphylococcus aureus; settings: Staphylococcus aureus
Outline: as §1

[6] = tested on: Candida albicans (ATCC 90029); assay: as above; assay type: cell-based; settings: Candida albicans
Outline: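 Broth microdilution per CLSI guidelines in RPMI 1640; inoculum set to OD530 0.08–0.13, diluted 1:50 then 1:20 to 2× strength and mixed 1:2 with 2-fold serial compound dilutions. Incubated at 35° C; MIC read per CLSI.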

[7] = pH (Table 1); assay type: physicochemical
[8] = tested on: Escherichia coli (ATCC 25922); assay: Time kill study, Example 33 (0 to 5 min); assay type: cell-based; settings: 1×MIC
Outline: (§2)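 Viable counts (Log10 CFU/mL) were recorded at each time point. Equal volumes of strain suspension and compound solution were combined following CLSI guidelines, then aliquots were diluted, plated on agar and incubated 24 to 48 hrs before colony counting.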

[9] = tested on: Pseudomonas aeruginosa (ATCC 27853); assay: Time kill study, Example 33 (0 to 5 min); assay type: cell-based; settings: 1×MIC
Outline: as §2

[10] = tested on: Staphylococcus aureus (ATCC 29213); assay: Time kill study, Example 33 (0 to 5 min); assay type: cell-based; settings: 1×MIC
Outline: as §2

[11] = tested on: Candida albicans (ATCC 90029); assay: Time kill study, Example 33 (0 to 5 min); assay type: cell-based; settings: 1×MIC
Outline: as §2

[12] = CMCC98003, read-out: MIC Aspergillus niger
[13] = ATCC25922, Table 19 summary of Example 33 and Example 35
[14] = ATCC25922, read-out: MIC E. coli, n = 1
[15] = ATCC25922, read-out: MIC E. coli, n = 2
[16] = ATCC27853, read-out: MIC P. aeruginosa, n = 1
[17] = ATCC27853, read-out: MIC P. aeruginosa, n = 2
[18] = ATCC29213, read-out: MIC S. aureus, n = 1
[19] = ATCC29213, read-out: MIC S. aureus, n = 2
[20] = ATCC90029, read-out: MIC Candida albicans, n = 1
[21] = ATCC90029, read-out: MIC Candida albicans, n = 2

| SMILES | MIC ([1]; CMCC98003) [µg/mL] | MIC [1, 12] [µg/mL] | MIC Aspergillus niger [1] [µg/mL] | Sol. [2] [%] | MIC [3, 13] [µg/mL] | MIC [3, 14] [µg/mL] | MIC [3, 15] [µg/mL] | MIC ([4]; ATCC27853, Table 19 summary) [µg/mL] | MIC [4, 16] [µg/mL] | MIC [4, 17] [µg/mL] | MIC [5, 18] [µg/mL] | MIC [5, 19] [µg/mL] | MIC ([6]; ATCC90029, Table 19 summary) [µg/mL] | MIC [6, 20] [µg/mL] | MIC [6, 21] [µg/mL] | pH [7] | Viable counts, Escherichia coli time kill study ([8]; 0.5 min) [Log10 CFU/mL] | Viable counts, Escherichia coli time kill study ([8]; 1 min) [Log10 CFU/mL] | Viable counts, Escherichia coli time kill study ([8]; 5 min) [Log10 CFU/mL] | Viable counts, Escherichia coli time kill study ([8]; time 0) [Log10 CFU/mL] | also measured |
| --- | --- | --- | --- | --- | --- | --- | --- | --- | --- | --- | --- | --- | --- | --- | --- | --- | --- | --- | --- | --- | --- |
| CCCCCCCCCCCCCCOC(=O)C(C)N(C)C (stereo not drawn) [Nex-66, Tetradecyl 2-(dimethylamino)propanoate hydrochloride] | > 12500 | > 12500 | >12500 | 48 | 3130 | 3130 | 3130 | 6250 | 6250 | 6250 | 3130 | 3130 | > 12500 | > 12500 | > 12500 | 2.35 | 5.91 | 6.03 | 5.81 | 5.7 | MIC ([5]; ATCC29213, Table 19 summary): 3130 µg/mL; Viable counts, Pseudomonas aeruginosa time kill study ([9]; 0.5 min): 5.91 Log10 CFU/mL; Viable counts, Pseudomonas aeruginosa time kill study ([9]; 1 min): 5.68 Log10 CFU/mL; Viable counts, Pseudomonas aeruginosa time kill study ([9]; 5 min): 5.56 Log10 CFU/mL; Viable counts, Pseudomonas aeruginosa time kill study ([9]; time 0): 5.64 Log10 CFU/mL; Viable counts, Staphylococcus aureus time kill study ([10]; 0.5 min): 6.5 Log10 CFU/mL; Viable counts, Staphylococcus aureus time kill study ([10]; 1 min): 6.41 Log10 CFU/mL; Viable counts, Staphylococcus aureus time kill study ([10]; 5 min): 6.39 Log10 CFU/mL; Viable counts, Staphylococcus aureus time kill study ([10]; time 0): 6.27 Log10 CFU/mL |
| CCCCCCCCCCCOC(=O)C(C)N(C)C (stereo not drawn) [Nex-67, Undecyl 2-(dimethylamino)propanoate hydrochloride] | 12500 | 12500 | 12500 | 81 | 1560 | 1560 | 1560 | 6250 | 6250 | 6250 | 3130 | 1560 | 6250 | 6250 | 6250 | 3.77 | 5.81 | 5.28 | 3.82 | 5.64 | Viable counts, Pseudomonas aeruginosa time kill study ([9]; 0.5 min): <4.0 Log10 CFU/mL; Viable counts, Pseudomonas aeruginosa time kill study ([9]; 1 min): <3.70 Log10 CFU/mL; Viable counts, Pseudomonas aeruginosa time kill study ([9]; 5 min): <3.52 Log10 CFU/mL; Viable counts, Pseudomonas aeruginosa time kill study ([9]; time 0): 5.71 Log10 CFU/mL; Viable counts, Staphylococcus aureus time kill study ([10]; 0.5 min): 6.1 Log10 CFU/mL; Viable counts, Staphylococcus aureus time kill study ([10]; 1 min): 6.13 Log10 CFU/mL; Viable counts, Staphylococcus aureus time kill study ([10]; 5 min): 5.88 Log10 CFU/mL; Viable counts, Staphylococcus aureus time kill study ([10]; time 0): 6.27 Log10 CFU/mL; Viable counts, Candida albicans time kill study ([11]; 0.5 min): 5.53 Log10 CFU/mL; Viable counts, Candida albicans time kill study ([11]; 1 min): 5.49 Log10 CFU/mL; Viable counts, Candida albicans time kill study ([11]; 5 min): 5.41 Log10 CFU/mL; Viable counts, Candida albicans time kill study ([11]; time 0): 5.58 Log10 CFU/mL |
| CCCCCCCCCCCCCOC(=O)C(C)N(C)C (stereo not drawn) [Nex-69, Tridecyl 2-(dimethylamino)propanoate hydrochloride] | > 12500 | > 12500 | >12500 | 51 | 3130 | 3130 | 3130 | 6250 | 6250 | 6250 | 3130 | 3130 | 12500 | 12500 | 12500 | 1.64 | 5.72 | 5.54 | <3.52 | 6.25 | MIC ([5]; ATCC29213, Table 19 summary): 3130 µg/mL; Viable counts, Pseudomonas aeruginosa time kill study ([9]; 0.5 min): 5.75 Log10 CFU/mL; Viable counts, Pseudomonas aeruginosa time kill study ([9]; 1 min): 5.74 Log10 CFU/mL; Viable counts, Pseudomonas aeruginosa time kill study ([9]; 5 min): 5.21 Log10 CFU/mL; Viable counts, Pseudomonas aeruginosa time kill study ([9]; time 0): 5.65 Log10 CFU/mL; Viable counts, Staphylococcus aureus time kill study ([10]; 0.5 min): 6.39 Log10 CFU/mL; Viable counts, Staphylococcus aureus time kill study ([10]; 1 min): 6.31 Log10 CFU/mL; Viable counts, Staphylococcus aureus time kill study ([10]; 5 min): 6.38 Log10 CFU/mL; Viable counts, Staphylococcus aureus time kill study ([10]; time 0): 6.41 Log10 CFU/mL |
